In PubChem BioAssay AID248 (DTP/NCI, 2004) one finds T/C data, which are given here for 17 molecules.

In the experiment the test system is L1210 leukemia ip in BDF1 mice, survival T/C. As to the kind of experiment: NCI In Vivo Anticancer Drug Screen. Data for tumor model L1210 Leukemia (intraperitoneal) in B6D2F1 (BDF1) mice. Particulars: endpoint: mean survival time, higher = longer survival. The gist of the method:
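Transplanted-tumor mice were given test agent; controls received vehicle only. Survival readings from the two groups were divided (treated over control).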

The mark [1] stands for this setting: dose: 100.0 mg/kg/injection, schedule: Q01DX009 (ip), vehicle: Klucel (hydroxypropylcellulose) (HPC).
Setting [2] is: dose: 100.0 mg/kg/injection, schedule: Q04DX003 (ip), vehicle: saline.
Where [3] appears, read: dose: 200.0 mg/kg/injection, schedule: Q04DX003 (ip), vehicle: saline.
[4] abbreviates: dose: 400.0 mg/kg/injection, schedule: Q04DX003 (ip), vehicle: saline.
Setting [5] is: dose: 100.0 mg/kg/injection, schedule: Q01DX009 (ip), vehicle: saline.
The mark [6] stands for this setting: dose: 200.0 mg/kg/injection, schedule: Q01DX009 (ip), vehicle: saline.
Setting [7] is: dose: 400.0 mg/kg/injection, schedule: Q01DX009 (ip), vehicle: saline.
[8] abbreviates: dose: 100.0 mg/kg/injection, schedule: Q01DX001 (ip), vehicle: saline.
The mark [9] stands for this setting: dose: 200.0 mg/kg/injection, schedule: Q01DX001 (ip), vehicle: saline.
[10] abbreviates: dose: 400.0 mg/kg/injection, schedule: Q01DX001 (ip), vehicle: saline.

“And” between values parts separate entries of the source, which are not always exact repeats. Equal values may be shown once. Inconclusive results and toxic doses are left out.

Take `CN1CCN(c2ncnc3c2ncn3C2OC(CO)C(O)C2O)CC1` (configuration not stated): the T/C runs as follows: (dose: 100.0 mg/kg/injection, schedule: Q01DX005 (ip), vehicle: water) 95 % of control; (dose: 200.0 mg/kg/injection, schedule: Q01DX005 (ip), vehicle: water) 90 % of control; (dose: 400.0 mg/kg/injection, schedule: Q01DX005 (ip), vehicle: water) 93 % of control.

Consider `ClC(Cl)[P+](N1CCCCC1)(N1CCCCC1)N1CCCCC1`, for which the T/C (dose: 0.75 mg/kg/injection, schedule: Q04DX003 (ip), vehicle: Klucel (hydroxypropylcellulose) (HPC)) is 115 % of control; the T/C (dose: 1.5 mg/kg/injection, schedule: Q04DX003 (ip), vehicle: Klucel (hydroxypropylcellulose) (HPC)) was 118 % of control; the T/C (dose: 3.0 mg/kg/injection, schedule: Q04DX003 (ip), vehicle: Klucel (hydroxypropylcellulose) (HPC)) was 93 % of control and 118 % of control.

Regarding `CCC(=O)Oc1ccccc1C(=O)O`, the T/C reads like this: (dose: 25.0 mg/kg/injection, schedule: Q01DX009 (ip), vehicle: Klucel (hydroxypropylcellulose) (HPC)) 98 % of control; (dose: 50.0 mg/kg/injection, schedule: Q01DX009 (ip), vehicle: Klucel (hydroxypropylcellulose) (HPC)) 98 % of control; under setting [1], 103 % of control.

For the molecule `COC(=O)C1C2C=CC(O2)C1C(=O)OC` (configuration not stated), the T/C by setting is: (dose: 100.0 mg/kg/injection, schedule: Q01DX009 (ip), vehicle: carboxymethylcellulose (CMC)) 98 % of control; (dose: 100.0 mg/kg/injection, schedule: Q01DX009 (ip), vehicle: other) 101 % of control; (dose: 200.0 mg/kg/injection, schedule: Q01DX009 (ip), vehicle: carboxymethylcellulose (CMC)) 102 % of control; (dose: 200.0 mg/kg/injection, schedule: Q01DX009 (ip), vehicle: other) 102 % of control; (dose: 400.0 mg/kg/injection, schedule: Q01DX009 (ip), vehicle: carboxymethylcellulose (CMC)) 96 % of control; (dose: 400.0 mg/kg/injection, schedule: Q01DX009 (ip), vehicle: other) 101 % of control.

Consider `CCN(CC)CCCNC1=C(Cl)C(=O)c2ccccc2C1=O`, for which the T/C (dose: 25.0 mg/kg/injection, schedule: Q01DX009 (ip), vehicle: saline with Tween-80) was 95 % of control.

`ClC1=C(Br)C(Br)(Br)C(=C(Br)Br)C1(Br)Br`: the T/C runs as follows: (dose: 100.0 mg/kg/injection, schedule: Q01DX009 (ip), vehicle: saline sonified) 96 % of control; (dose: 100.0 mg/kg/injection, schedule: Q04DX003 (ip), vehicle: Klucel (hydroxypropylcellulose) (HPC)) 106 % of control; (dose: 200.0 mg/kg/injection, schedule: Q01DX009 (ip), vehicle: saline sonified) 94 % of control; (dose: 200.0 mg/kg/injection, schedule: Q04DX003 (ip), vehicle: Klucel (hydroxypropylcellulose) (HPC)) 103 % of control; (dose: 400.0 mg/kg/injection, schedule: Q01DX009 (ip), vehicle: saline sonified) 102 % of control; (dose: 400.0 mg/kg/injection, schedule: Q04DX003 (ip), vehicle: Klucel (hydroxypropylcellulose) (HPC)) 97 % of control.

On to `CC1CNC(=O)N1` (configuration not stated), for which the T/C by setting is: under setting [2], 102 % of control; under setting [3], 101 % of control; (dose: 222.0 mg/kg/injection, schedule: Q01DX Z (ip), vehicle: saline) 97 % of control; (dose: 333.0 mg/kg/injection, schedule: Q01DX Z (ip), vehicle: saline) 111 % of control; under setting [4], 96 % of control; (dose: 500.0 mg/kg/injection, schedule: Q01DX Z (ip), vehicle: saline) 103 % of control.

Consider `NC(=O)NN=C1CSSC1`, for which the T/C is 101 % of control (dose: 1.56 mg/kg/injection, schedule: Q01DX009 (ip), vehicle: saline with Tween-80); 99 % of control (dose: 3.12 mg/kg/injection, schedule: Q01DX009 (ip), vehicle: saline with Tween-80); 94 % of control (dose: 6.25 mg/kg/injection, schedule: Q01DX009 (ip), vehicle: saline with Tween-80); 97 % of control (dose: 6.25 mg/kg/injection, schedule: Q04DX003 (ip), vehicle: saline with Tween-80); 98 % of control and 106 % of control (dose: 12.5 mg/kg/injection, schedule: Q01DX009 (ip), vehicle: saline with Tween-80); 97 % of control (dose: 12.5 mg/kg/injection, schedule: Q04DX003 (ip), vehicle: saline with Tween-80).

For `CCC1CCCC(C(=O)O)N1` (configuration not stated), the T/C is, setting by setting: under setting [5], 101 % of control; under setting [2], 95 % of control; under setting [6], 95 % of control; under setting [3], 95 % of control; under setting [7], 100 % of control; under setting [4], 105 % of control.

`CC(=O)Nc1cccc(-c2nnc(C3CCCC(NC(C)=O)C3)nn2)c1` (configuration not stated): the T/C by setting is: under setting [8], 96 % of control; under setting [9], 88 % of control; under setting [10], 88 % of control.

Take `NC(=O)CN(CC(N)=O)CC(N)=O`: the T/C runs as follows: under setting [8], 102 % of control; under setting [9], 98 % of control; under setting [10], 102 % of control.

Turning to `CSc1nc2ncncc2c(=O)[nH]1`, the T/C is, setting by setting: (dose: 100.0 mg/kg/injection, schedule: Q01DX001 (ip), vehicle: Klucel (hydroxypropylcellulose) (HPC)) 96 % of control; under setting [1], 98 % of control; (dose: 200.0 mg/kg/injection, schedule: Q01DX001 (ip), vehicle: Klucel (hydroxypropylcellulose) (HPC)) 100 % of control; (dose: 200.0 mg/kg/injection, schedule: Q01DX009 (ip), vehicle: Klucel (hydroxypropylcellulose) (HPC)) 102 % of control; (dose: 400.0 mg/kg/injection, schedule: Q01DX001 (ip), vehicle: Klucel (hydroxypropylcellulose) (HPC)) 101 % of control; (dose: 400.0 mg/kg/injection, schedule: Q01DX009 (ip), vehicle: Klucel (hydroxypropylcellulose) (HPC)) 95 % of control.

As to `O=COCCN(C=O)c1ccc(C(=O)O)cc1`, the T/C was 92 % of control (dose: 75.0 mg/kg/injection, schedule: Q01DX009 (ip), vehicle: Klucel (hydroxypropylcellulose) (HPC)); 87 % of control (dose: 150.0 mg/kg/injection, schedule: Q01DX009 (ip), vehicle: Klucel (hydroxypropylcellulose) (HPC)); 88 % of control (dose: 300.0 mg/kg/injection, schedule: Q01DX009 (ip), vehicle: Klucel (hydroxypropylcellulose) (HPC)).

In the case of `C[n+]1ccc(NC(=O)c2ccc(NC(=O)c3ccc(C(=O)Nc4ccc(C(=O)Nc5cc[n+](C)cc5)cc4)c(N)c3)cc2)cc1`, the T/C is, setting by setting: (dose: 8.1 mg/kg/injection, schedule: Q01DX Z (oral), vehicle: water) 97 % of control; (dose: 10.0 mg/kg/injection, schedule: Q01DX Z (ip), vehicle: water) 123 % of control; (dose: 12.5 mg/kg/injection, schedule: Q01DX Z (ip), vehicle: water) 124 % of control; (dose: 16.3 mg/kg/injection, schedule: Q01DX Z (oral), vehicle: water) 112 % of control; (dose: 20.0 mg/kg/injection, schedule: Q01DX Z (ip), vehicle: water) 162 % of control; (dose: 25.0 mg/kg/injection, schedule: Q01DX Z (ip), vehicle: water) 150 % of control. Besides, the T/C was 101 % of control (dose: 32.5 mg/kg/injection, schedule: Q01DX Z (oral), vehicle: water); 91 % of control (dose: 40.0 mg/kg/injection, schedule: Q01DX Z (ip), vehicle: water); 120 % of control (dose: 50.0 mg/kg/injection, schedule: Q01DX Z (ip), vehicle: water); 118 % of control (dose: 62.0 mg/kg/injection, schedule: Q01DX Z (ip), vehicle: carboxymethylcellulose (CMC)); 105 % of control (dose: 65.0 mg/kg/injection, schedule: Q01DX Z (oral), vehicle: water).

As to `NNc1nc2c(N)ncnc2n1C1OC(CO)C(O)C1O` (configuration not stated), the T/C is 104 % of control (dose: 100.0 mg/kg/injection, schedule: Q01DX005 (ip), vehicle: saline) and 107 % of control (dose: 200.0 mg/kg/injection, schedule: Q01DX005 (ip), vehicle: saline).

With `Cc1cc(N)no1`, the T/C is 100 % of control under setting [5]; 108 % of control under setting [2]; 104 % of control under setting [6]; 106 % of control under setting [3]; 104 % of control under setting [7]; 108 % of control under setting [4].

With `Cc1nc2ccccc2c(=O)n1C(C)(C)CCl`, the T/C by setting is: (dose: 100.0 mg/kg/injection, schedule: Q04DX003 (ip), vehicle: saline with Tween-80) 95 % of control; (dose: 200.0 mg/kg/injection, schedule: Q04DX003 (ip), vehicle: saline with Tween-80) 92 % of control; (dose: 400.0 mg/kg/injection, schedule: Q04DX003 (ip), vehicle: saline with Tween-80) 95 % of control.
